According to patent US6784153B1, “Methods of homing molecules to lung using membrane dipeptidase” (The Burnham Institute, priority 1998, dated 2004):
“Also recorded” adds a separate entry of the source.

Legend:
[1] = tested on: lung; assay: immunohistologic analysis of lung homing phage; type: in vivo, mice
Experimental: Phage displaying homing peptides were detected in lung, pancreas and skin by immunostaining histologic sections obtained 5 min after administration of phage expressing a lung, pancreas or skin homing peptide (“peptide-phage”) to a mouse. Following administration of the peptide-phage, mice were handled as described above and various organs, including lung, pancreas and skin, were removed and fixed in Bouin's solution (SIGMA). Histologic sections were prepared and reacted with anti-M13 (phage) antibodies (Pharmacia Biotech; see U.S. Pat. No. 5,622,699, supra, 1997; Pasqualini and Ruoslahti, supra, 1996). Visualization of the bound anti-M13 antibody was performed using a second antibody conjugated to peroxidase (SIGMA) according to the manufacturer's instructions.
Phage displaying the lung homing peptide, GFE-1 (SEQ ID NO: 1), were administered intravenously to mice and, after 5 minutes of circulation, the lung was isolated and processed as described above. […] However, staining of bronchiolar walls and some larger blood vessels was absent.

[2] = biological target: T1, MDP (Mus musculus, UniProt P31428); assay: inhibition of MDP activity (hydrolysis of Gly-D-Phe, fluorimetric); type: biochemical, murine; conditions: Gly-D-Phe 0.5 mM; extracts from MDP-expressing COS-1 cells; listed as GFE-1
T1 construct: The amplified 1.3 kb murine MDP cDNA was digested with KpnI and XbaI, and inserted into the same sites of the pcDNA3 expression vector; expressed in transfected cells; host or cells: COS-1 cells, pcDNA3 expression vector
T1 sequence (P31428 17-384): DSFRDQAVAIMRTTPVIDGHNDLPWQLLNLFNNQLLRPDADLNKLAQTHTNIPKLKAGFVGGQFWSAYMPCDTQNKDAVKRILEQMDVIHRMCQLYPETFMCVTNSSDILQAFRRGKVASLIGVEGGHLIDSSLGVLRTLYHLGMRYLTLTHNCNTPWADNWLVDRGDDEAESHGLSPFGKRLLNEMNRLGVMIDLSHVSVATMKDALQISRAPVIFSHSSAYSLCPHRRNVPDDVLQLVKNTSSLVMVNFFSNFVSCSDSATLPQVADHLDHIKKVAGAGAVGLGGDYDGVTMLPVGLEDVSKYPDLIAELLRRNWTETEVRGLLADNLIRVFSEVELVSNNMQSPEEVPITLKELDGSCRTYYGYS
Experimental: […] […] Fluorescence was measured using an fmax fluorescence microplate reader from Molecular Devices (Sunnyvale, Calif.).
Phage binding to COS-1 cells transfected with MDP was determined as follows. Briefly, 10^7 COS-1 cells were transfected with 10 μg of either the MDP expression vector or the vector alone. After 48 hours, cells were scraped gently from the dish, washed once, and subjected to the phage binding assay or membrane dipeptidase activity assay described above. For the phage binding assay, 5×10^6 cells and 10^10 transducing units (TU) of phage input were used. For measurement of membrane dipeptidase activity, 10^6 cells were lysed in 100 μl of PBS/octylglycoside without protease inhibitors. A 10 μl aliquot of the extract was used to measure MDP activity.
Fluorimetric detection of D-Phe was performed as described above.

[3] = tested on: rat lung blood vessels; assay: targeting of rat lung blood vessels by injected phage; type: in vivo; conditions: phage injected in the circulation

**Q.** For CGFECVRQCPERC [lung homing peptide], which “immunohistochemical staining of lung” value ([1]; 5 min after intravenous phage) is on record?
**A.** staining of the alveolar capillaries was observed

**Q.** And the “staining of pancreas and skin after lung homing phage” value ([1]; control tissues)?
**A.** no staining was observed in pancreas and skin

**Q.** What about the “inhibition of hydrolysis of Gly-D-Phe by MDP” value [2] of the same sequence?
**A.** inhibits hydrolysis of the Gly-D-Phe substrate in a dose-dependent manner; also recorded: inhibited hydrolysis of the Gly-D-Phe substrate (0.5 mM) in a dose-dependent manner; also recorded: inhibition of MDP activity

**Q.** And the “targeting of rat lung blood vessels” value [3]?
**A.** selectively target rat lung blood vessels
